In patent publication US11707454B2, “Topical roflumilast formulation having antifungal properties” (ARCUTIS BIOTHERAPEUTICS, INC., priority 2020, dated 2023):
Values after ≈ are worked out from the molar mass of the structure shown. Like-named read-outs stand apart in the source and are kept apart here.

Legend:
Type in all cases: cell-based
C. albicans (ATCC 90028) = assay: in vitro micro-dilution susceptibility assay (method of Rojas); conditions: Candida albicans, read-out: minimum inhibition concentration (MIC)
Description: (§1) The in vitro susceptibility of Malassezia species to roflumilast was determined utilizing three Candida species as internal control isolates for all testing. These three isolates were C. albicans American Type Culture Collection (ATCC) 90028, C. krusei (ATCC 6258) and C. parapsilosis (ATCC 22019). In addition to testing roflumilast all susceptibility assays were conducted using ketoconazole and hydrocortisone as positive and negative control compounds, respectively. All assays were placed within a humidified incubator set to 32° C. for a total of seven days. Each assay was evaluated after 12 hours of incubation and, every 24 hours post incubation for a total of seven days. The assays were evaluated for visual growth of each pathogen in the no treatment control as well as determination of minimum inhibition concentration (MIC) values. The concentration that provides a 3-log10 CFU/mL reduction in fungal burden from baseline at day 0 was defined as the minimum fungicidal concentration (MHC) and was determined by quantifying fungal burdens found in the microplate at day seven.
(§2) The method of Rojas (Rojas F D, et al. Antifungal susceptibility of Malassezia furfur, Malassezia sympodialis, and Malassezia globose to azole drugs and amphotericin B evaluated using a broth microdilution method. 2014. Medical Mycology. 52:641-646) was used in which the liquid broth medium was RPMI 1640 with added 1.8% glucose, 1% peptone, 0.5% ox-bile, 0.5% malt extract, 1% glycerol, 0.5% Tween 40 and 0.05% Tween 80. Round bottom 96 well microplates were used. The inoculums were prepared in sterile saline and diluted to a final targeted concentration of 0.5×10^5 to 2.5×10^5 CFU/mL in supplemented RPMI. […] For the internal control isolate C. parapsilosis (ATCC 22019) the expected CLSI values for ketoconazole of 0.03-0.25 (at 24 hours) and 0.06-0.5 (at 48 hours) did agree with the 2-day value (Table A) of 0.5.

C. krusei (ATCC 6258) = assay: as above; conditions: Pichia kudriavzevii, read-out: minimum inhibition concentration (MIC)
Description: as §1, §2

[1] = test system: C. parapsilosis (ATCC 22019); assay: as above; conditions: Lodderomyces parapsilosis, C. parapsilosis (22019), read-out: minimum inhibition concentration (MIC)
Description: as §1, §2

M. furfur (ATCC 12078) = assay: as above; conditions: for MIC: Malassezia furfur, read-out: minimum inhibition concentration (MIC)
Description: as §1, §2

M. furfur (ATCC 14521) = assay: as above
Description: as §1, §2

M. furfur (ATCC 44344) = assay: as above; conditions: for MIC: Malassezia furfur, read-out: minimum inhibition concentration (MIC)
Description: as §1, §2

[2] = test system: M. globose (ATCC MYA-4889); assay: as above; conditions: for MIC: read-out: minimum inhibition concentration (MIC)
Description: as §1, §2

[3] = test system: M. restricta (ATCC MYA-4611); assay: as above; conditions: for MIC: read-out: minimum inhibition concentration (MIC)
Description: as §1, §2

Candida species = assay: in vitro micro-dilution susceptibility assay, summary; conditions: method of Rojas
Description: as §1, with “seven. […]” for “seven.”

Malassezia species = assay: as above; conditions: compared to the hydrocortisone negative control
Description: as §1, with “seven. […]” for “seven.”

O=C(Nc1c(Cl)cncc1Cl)c1ccc(OC(F)F)c(OCC2CC2)c1 [Roflumilast, N-(3,5-dichloropyrid-4-yl)-3-cyclopropylmethoxy-4-difluoromethoxybenzamid-e]
MIC (C. albicans (ATCC 90028); ATCC90028, 12 h, Time 0.5 days): > 1020 µg/mL | MIC (C. albicans (ATCC 90028); ATCC90028, 24 h, Time 1 days): > 1020 µg/mL | MIC (C. albicans (ATCC 90028); ATCC90028, 48 h, Time 2 days): > 1020 µg/mL | MIC (C. albicans (ATCC 90028); ATCC90028, 72 h, Time 3 days): > 1020 µg/mL | MIC (C. albicans (ATCC 90028); ATCC90028, 96 h, Time 4 days): > 1020 µg/mL | MIC (C. albicans (ATCC 90028); ATCC90028, 120 h, Time 5 days): > 1020 µg/mL | MIC (C. albicans (ATCC 90028); ATCC90028, 144 h, Time 6 days): > 1020 µg/mL | MIC (C. albicans (ATCC 90028); ATCC90028, 168 h, Time 7 days): > 1020 µg/mL | MIC (C. krusei (ATCC 6258); ATCC6258, 12 h, Time 0.5 days): 128 µg/mL (≈ 317 µM) | MIC (C. krusei (ATCC 6258); ATCC6258, 24 h, Time 1 days): 1020 µg/mL (≈ 2540 µM) | MIC (C. krusei (ATCC 6258); ATCC6258, 48 h, Time 2 days): > 1020 µg/mL | MIC (C. krusei (ATCC 6258); ATCC6258, 72 h, Time 3 days): > 1020 µg/mL | MIC (C. krusei (ATCC 6258); ATCC6258, 96 h, Time 4 days): > 1020 µg/mL | MIC (C. krusei (ATCC 6258); ATCC6258, 120 h, Time 5 days): > 1020 µg/mL | MIC (C. krusei (ATCC 6258); ATCC6258, 144 h, Time 6 days): > 1020 µg/mL | MIC (C. krusei (ATCC 6258); ATCC6258, 168 h, Time 7 days): > 1020 µg/mL | MIC ([1]; ATCC22019, 12 h, Time 0.5 days): 1020 µg/mL (≈ 2540 µM) | MIC ([1]; ATCC22019, 24 h, Time 1 days): 1020 µg/mL (≈ 2540 µM) | MIC ([1]; ATCC22019, 48 h, Time 2 days): > 1020 µg/mL | MIC ([1]; ATCC22019, 72 h, Time 3 days): > 1020 µg/mL | MIC ([1]; ATCC22019, 96 h, Time 4 days): > 1020 µg/mL | MIC ([1]; ATCC22019, 120 h, Time 5 days): > 1020 µg/mL | MIC ([1]; ATCC22019, 144 h, Time 6 days): > 1020 µg/mL | MIC ([1]; ATCC22019, 168 h, Time 7 days): > 1020 µg/mL | MIC (M. furfur (ATCC 12078); ATCC12078, 48 h, Time 2 days): 128 µg/mL (≈ 317 µM) | MIC (M. furfur (ATCC 12078); ATCC12078, 72 h, Time 3 days): 128 µg/mL (≈ 317 µM) | MIC (M. furfur (ATCC 12078); ATCC12078, 96 h, Time 4 days): 128 µg/mL (≈ 317 µM) | MIC (M. furfur (ATCC 12078); ATCC12078, 120 h, Time 5 days): 128 µg/mL (≈ 317 µM) | MIC (M. furfur (ATCC 12078); ATCC12078, 144 h, Time 6 days): 128 µg/mL (≈ 317 µM) | MIC (M. furfur (ATCC 12078); ATCC12078, 168 h, Time 7 days): 128 µg/mL (≈ 317 µM) | minimum inhibition concentration (MIC) (M. furfur (ATCC 12078); Time 0.5 days): NGO | minimum inhibition concentration (MIC) (M. furfur (ATCC 12078); Time 1 days): NGO | minimum inhibition concentration (MIC) (M. furfur (ATCC 14521); Time 0.5 days): NGO | minimum inhibition concentration (MIC) (M. furfur (ATCC 14521); Time 1 days): NGO | MIC (M. furfur (ATCC 44344); ATCC44344, 48 h, Time 2 days): 64 µg/mL (≈ 159 µM) | MIC (M. furfur (ATCC 44344); ATCC44344, 72 h, Time 3 days): 64 µg/mL (≈ 159 µM) | MIC (M. furfur (ATCC 44344); ATCC44344, 96 h, Time 4 days): 64 µg/mL (≈ 159 µM) | MIC (M. furfur (ATCC 44344); ATCC44344, 120 h, Time 5 days): 64 µg/mL (≈ 159 µM) | MIC (M. furfur (ATCC 44344); ATCC44344, 144 h, Time 6 days): 64 µg/mL (≈ 159 µM) | MIC (M. furfur (ATCC 44344); ATCC44344, 168 h, Time 7 days): 64 µg/mL (≈ 159 µM) | minimum inhibition concentration (MIC) (M. furfur (ATCC 44344); Time 0.5 days): NGO | minimum inhibition concentration (MIC) (M. furfur (ATCC 44344); Time 1 days): NGO | MIC ([2]; 48 h, Time 2 days): 32 µg/mL (≈ 79.4 µM) | MIC ([2]; 72 h, Time 3 days): 32 µg/mL (≈ 79.4 µM) | MIC ([2]; 96 h, Time 4 days): 128 µg/mL (≈ 317 µM) | MIC ([2]; 120 h, Time 5 days): 128 µg/mL (≈ 317 µM) | MIC ([2]; 144 h, Time 6 days): 128 µg/mL (≈ 317 µM) | MIC ([2]; 168 h, Time 7 days): 128 µg/mL (≈ 317 µM) | minimum inhibition concentration (MIC) ([2]; Time 0.5 days): NGO | minimum inhibition concentration (MIC) ([2]; Time 1 days): NGO | MIC ([3]; 48 h, Time 2 days): 32 µg/mL (≈ 79.4 µM) | MIC ([3]; 72 h, Time 3 days): 32 µg/mL (≈ 79.4 µM) | MIC ([3]; 96 h, Time 4 days): 32 µg/mL (≈ 79.4 µM) | MIC ([3]; 120 h, Time 5 days): 32 µg/mL (≈ 79.4 µM) | MIC ([3]; 144 h, Time 6 days): 32 µg/mL (≈ 79.4 µM) | MIC ([3]; 168 h, Time 7 days): 64 µg/mL (≈ 159 µM) | minimum inhibition concentration (MIC) ([3]; Time 0.5 days): NGO | minimum inhibition concentration (MIC) ([3]; Time 1 days): NGO | antifungal activity against the tested Candida species (Candida species): did not demonstrate antifungal activity | antifungal activity against Malassezia species (Malassezia species): provides antifungal activity against Malassezia species
